# US6737383B1, “Herbicidal oxadiazolidines” (priority 1999, dated 2004)
# How the values were obtained:
# giant foxtail = experiment: Test B pre/postemergence giant foxtail; format: in vivo, Setaria faberii
# Outline: (§1)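 Herbicidal effect was estimated by eye on a ten-point control scale after plants spent twelve to sixteen days in a greenhouse following soil or foliar treatment. Foliar sprays targeted plants at one to four leaves; all doses were formulated in a non-phytotoxic solvent with surfactant.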
# sugar beet = experiment: Test B pre/postemergence sugar beet; format: in vivo, Beta vulgaris; settings: for Plant response rating, Sugarbeets: Rate 250 g/ha
# Outline: as §1
# smallflower flatsedge = experiment: Test B flood test smallflower flatsedge; format: in vivo, Cyperus difformis
# Outline: (§2)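 Plants were grown to the 2-leaf stage before treatment with test chemical, then held in a greenhouse for twelve to sixteen days. Injury was visually rated against untreated controls on a 0–10 scale, where 0 is no effect and 10 is complete control.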
# blackgrass = experiment: Test B pre/postemergence blackgrass; format: in vivo, Alopecurus myosuroides
# Outline: as §1
# velvetleaf = experiment: Test B pre/postemergence velvetleaf; format: in vivo, Abutilon theophrasti; settings: for Plant response rating, Velvetleaf: Rate 250 g/ha
# Outline: as §1
# wild oat = experiment: Test B pre/postemergence wild oat; format: in vivo, Avena fatua; settings: for Plant response rating, Wild oats: Rate 250 g/ha
# Outline: as §1
# pigweed = experiment: Test B pre/postemergence pigweed; format: in vivo, Amaranthus retroflexus
# Outline: as §1
# bedstraw = experiment: Test B pre/postemergence bedstraw; format: in vivo, Galium aparine
# Outline: as §1
# corn = experiment: Test B pre/postemergence corn; format: in vivo, Zea mays
# Outline: as §1
# rice = experiment: Test B flood test rice; format: in vivo, Oryza sativa
# Outline: as §2
# bamyardgrass = experiment: Test B flood test barnyardgrass; format: in vivo, Echinochloa crus-galli
# Outline: as §2
# surinam grass = experiment: Test B pre/postemergence surinam grass; format: in vivo, Brachiaria decumbens
# Outline: as §1
# crabgrass = experiment: Test B pre/postemergence crabgrass; format: in vivo, Digitaria sanguinalis
# Outline: as §1
# cocklebur = experiment: Test B pre/postemergence cocklebur; format: in vivo, Xanthium strumarium
# Outline: as §1
# soybean = experiment: Test B pre/postemergence soybean; format: in vivo, Glycine max
# Outline: as §1
# purple nutsedge = experiment: Test B pre/postemergence purple nutsedge; format: in vivo, Cyperus rotundus
# Outline: as §1
# [1] = Postemergence, Rate 125 g/ha, scale of 0 to 10 where 0 is no effect and 10 is complete control
# [2] = Postemergence, Rate 250 g/ha, scale 0 to 10, 0 no effect, 10 complete control
# [3] = Preemergence, Rate 62 g/ha, scale 0 to 10 (0 no effect, 10 complete control)
# [4] = Preemergence, Rate 125 g/ha, scale 0 to 10 (0 no effect, 10 complete control)
# [5] = Preemergence, Rate 250 g/ha, scale of 0 to 10 where 0 is no effect and 10 is complete control
# [6] = Preemergence, Rate 500 g/ha, scale 0 to 10 (0 no effect, 10 complete control)
# [7] = Rate 62 g/ha, Postemergence, scale of 0 to 10 where 0 is no effect and 10 is complete control
# [8] = Rate 500 g/ha, Postemergence, scale 0 to 10, 0 no effect, 10 complete control
# [9] = Preemergence, Rate 125 g/ha, 0 is no effect, 10 is complete control
# [10] = Preemergence, scale of 0 to 10 where 0 is no effect and 10 is complete control
# [11] = Postemergence, scale 0 to 10, 0 is no effect, 10 is complete control
# [12] = Rate 250 g/ha, headed Pre-emergence (flood test species), scale 0 to 10 (0 no effect, 10 complete control)
# [13] = Rate 500 g/ha, headed Pre-emergence (flood test species), scale 0 to 10 (0 no effect, 10 complete control)
# [14] = Rate 2000 g/ha, Pre-emergence (as headed), scale 0 to 10
# [15] = Rate 250 g/ha, Postemergence, scale 0 to 10, 0 is no effect, 10 is complete control
# [16] = Postemergence, Rate 62 g/ha, scale 0 to 10, 0 is no effect, 10 is complete control
# [17] = Rate 125 g/ha, Postemergence, scale 0 to 10, 0 no effect, 10 complete control
# [18] = Rate 1000 g/ha, Pre-emergence (as headed), scale 0 to 10
smiles,measurement,setting,value
CC(C)N(C(=O)n1oc(=O)n(C(C)(C)C)c1=O)c1ccc(Cl)cc1 [Compound 118],Giant foxtail plant response rating,giant foxtail; [1],8
same,Giant foxtail plant response rating,giant foxtail; [2],9
same,Giant foxtail plant response rating,giant foxtail; [3],9
same,"Plant response rating, Giant foxtail",giant foxtail; [4],10
same,"Plant response rating, Giant foxtail",giant foxtail; [5],10
same,Giant foxtail plant response rating,giant foxtail; [6],10
same,Giant foxtail plant response rating,giant foxtail; [7],1
same,Giant foxtail plant response rating,giant foxtail; [8],9
same,Sugarbeets plant response rating,sugar beet; [1],0
same,Sugarbeets plant response rating,sugar beet; [3],0
same,Sugarbeets plant response rating (0 to 10 scale),sugar beet; [9],0
same,"Plant response rating, Sugarbeets",sugar beet; [10],0
same,Sugarbeets plant response rating,sugar beet; [6],0
same,Sugarbeets plant response rating,sugar beet; [7],0
same,"Plant response rating, Sugarbeets",sugar beet; [11],0
same,Sugarbeets plant response rating,sugar beet; [8],2
same,S. Flatsedge plant response rating,"smallflower flatsedge; Pre-emergence, Rate 1000 g/ha, scale 0 to 10 (0 no effect, 10 complete control)",0
same,S. Flatsedge plant response rating,smallflower flatsedge; [12],0
same,"Plant response rating, S. Flatsedge",smallflower flatsedge; [13],0
same,S. Flatsedge plant response rating,smallflower flatsedge; [14],0
same,Blackgrass plant response rating,blackgrass; [1],4
same,Blackgrass plant response rating,blackgrass; [2],7
same,Blackgrass plant response rating,blackgrass; [3],0
same,"Plant response rating, Blackgrass",blackgrass; [4],2
same,"Plant response rating, Blackgrass",blackgrass; [5],3
same,Blackgrass plant response rating,blackgrass; [6],7
same,Blackgrass plant response rating,blackgrass; [7],0
same,Blackgrass plant response rating,blackgrass; [8],9
same,Velvetleaf plant response rating,velvetleaf; [1],0
same,Velvetleaf plant response rating,velvetleaf; [3],0
same,Velvetleaf plant response rating (0 to 10 scale),velvetleaf; [9],0
same,"Plant response rating, Velvetleaf",velvetleaf; [10],0
same,Velvetleaf plant response rating,velvetleaf; [6],4
same,Velvetleaf plant response rating,velvetleaf; [7],0
same,"Plant response rating, Velvetleaf",velvetleaf; [11],0
same,Velvetleaf plant response rating,velvetleaf; [8],0
same,Wild oats plant response rating,wild oat; [1],0
same,Wild oats plant response rating,wild oat; [3],0
same,Wild oats plant response rating (0 to 10 scale),wild oat; [9],1
same,"Plant response rating, Wild oats",wild oat; [10],6
same,Wild oats plant response rating,wild oat; [6],6
same,Wild oats plant response rating,wild oat; [7],0
same,"Plant response rating, Wild oats",wild oat; [11],0
same,Wild oats plant response rating,wild oat; [8],2
same,Redroot pigweed plant response rating,pigweed; [1],0
same,Redroot pigweed plant response rating,pigweed; [3],0
same,"Plant response rating, Redroot pigweed",pigweed; [4],0
same,"Plant response rating, Redroot pigweed",pigweed; [5],2
same,Redroot pigweed plant response rating,pigweed; [6],10
same,Redroot pigweed plant response rating,pigweed; [7],0
same,"Plant response rating, Redroot pigweed",pigweed; [15],0
same,Redroot pigweed plant response rating,pigweed; [8],0
same,Bedstraw plant response rating,bedstraw; [16],0
same,Bedstraw plant response rating,bedstraw; [2],0
same,Bedstraw plant response rating,bedstraw; [3],0
same,"Plant response rating, Bedstraw",bedstraw; [4],0
same,"Plant response rating, Bedstraw",bedstraw; [5],0
same,Bedstraw plant response rating,bedstraw; [6],0
same,Bedstraw plant response rating,bedstraw; [17],0
same,Corn plant response rating,corn; [1],0
same,Corn plant response rating,corn; [2],0
same,Corn plant response rating,corn; [3],0
same,"Plant response rating, Corn",corn; [4],0
same,"Plant response rating, Corn",corn; [5],0
same,Corn plant response rating,corn; [6],0
same,Corn plant response rating,corn; [7],0
same,Corn plant response rating,corn; [8],3
same,Rice plant response rating,rice; [12],0
same,"Plant response rating, Rice",rice; [13],0
same,Rice plant response rating,rice; [18],0
same,Rice plant response rating,rice; [14],0
same,Barnyardgrass plant response rating,bamyardgrass; [12],0
same,"Plant response rating, Barnyardgrass",bamyardgrass; [13],1
same,Barnyardgrass plant response rating,bamyardgrass; [18],3
same,Barnyardgrass plant response rating,"bamyardgrass; Rate 2000 g/ha, Pre-emergence (as headed), scale 0 to 10, 0 no effect, 10 complete control",6
same,B. signalgrass plant response rating,surinam grass; [16],0
same,B. signalgrass plant response rating,surinam grass; [2],2
same,B. signalgrass plant response rating,surinam grass; [3],0
same,"Plant response rating, B. signalgrass",surinam grass; [4],2
same,"Plant response rating, B. signalgrass",surinam grass; [5],3
same,B. signalgrass plant response rating,surinam grass; [6],10
same,B. signalgrass plant response rating,surinam grass; [17],0
same,B. signalgrass plant response rating,"surinam grass; Rate 500 g/ha, Postemergence, scale of 0 to 10 where 0 is no effect and 10 is complete control",9
same,Crabgrass plant response rating,crabgrass; [1],7
same,Crabgrass plant response rating,crabgrass; [2],7
same,Crabgrass plant response rating,crabgrass; [3],7
same,"Plant response rating, Crabgrass",crabgrass; [4],9
same,"Plant response rating, Crabgrass",crabgrass; [5],10
same,Crabgrass plant response rating,crabgrass; [6],10
same,Crabgrass plant response rating,crabgrass; [7],1
same,Crabgrass plant response rating,crabgrass; [8],9
same,Cocklebur plant response rating,cocklebur; [1],0
same,Cocklebur plant response rating,cocklebur; [2],0
same,Cocklebur plant response rating,cocklebur; [3],0
same,"Plant response rating, Cocklebur",cocklebur; [4],0
same,"Plant response rating, Cocklebur",cocklebur; [5],0
same,Cocklebur plant response rating,cocklebur; [6],0
same,Cocklebur plant response rating,cocklebur; [7],0
same,Cocklebur plant response rating,cocklebur; [8],0
same,Soybean plant response rating,soybean; [1],1
same,Soybean plant response rating,soybean; [3],0
same,"Plant response rating, Soybean",soybean; [4],0
same,"Plant response rating, Soybean",soybean; [5],0
same,Soybean plant response rating,soybean; [6],0
same,Soybean plant response rating,soybean; [7],1
same,"Plant response rating, Soybean",soybean; [15],2
same,Soybean plant response rating,soybean; [8],2
same,Nutsedge plant response rating,purple nutsedge; [1],0
same,Nutsedge plant response rating,purple nutsedge; [2],0
same,Nutsedge plant response rating,purple nutsedge; [3],0
same,"Plant response rating, Nutsedge",purple nutsedge; [4],0
same,"Plant response rating, Nutsedge",purple nutsedge; [5],0
same,Nutsedge plant response rating,purple nutsedge; [6],0
same,Nutsedge plant response rating,purple nutsedge; [7],0
same,Nutsedge plant response rating,purple nutsedge; [8],0
